Data taken from PubChem BioAssay (NCI).
“And” between values parts separate entries of the source, which are not always exact repeats. Identical values can stand only once.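 Values below derive from 48-hour exposures of cells grown in 96-well plates, with endpoints linearly interpolated between the two concentrations bracketing the appropriate inhibition level. GI50 = concentration required for 50% inhibition of growth. The concentration for full growth arrest is given as TGI.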

What was measured:
Assay in all cases: inhibition of tumour cell growth, NCI panel, 48 h
OVCAR-4 ovarian = tested on: OVCAR-4 ovarian
UACC-62 melanoma = tested on: UACC-62 melanoma
K-562 leukemia = tested on: K-562 leukemia
HCC-2998 colon = tested on: HCC-2998 colon
HCT-15 colon = tested on: HCT-15 colon
SW-620 colon = tested on: SW-620 colon
IGROV1 ovarian = tested on: IGROV1 ovarian
SNB-75 CNS = tested on: SNB-75 CNS
SN12C renal = tested on: SN12C renal
OVCAR-8 ovarian = tested on: OVCAR-8 ovarian

| SMILES | TGI (OVCAR-4 ovarian) | TGI (UACC-62 melanoma) | TGI (K-562 leukemia) | TGI (HCC-2998 colon) | TGI (HCT-15 colon) | TGI (SW-620 colon) | TGI (IGROV1 ovarian) | TGI (SNB-75 CNS) | TGI (SN12C renal) | TGI (OVCAR-8 ovarian) | GI50 (OVCAR-4 ovarian) | GI50 (UACC-62 melanoma) | GI50 (K-562 leukemia) | GI50 (HCC-2998 colon) | GI50 (HCT-15 colon) | GI50 (SW-620 colon) | GI50 (IGROV1 ovarian) | GI50 (SNB-75 CNS) | GI50 (SN12C renal) | GI50 (OVCAR-8 ovarian) |
| --- | --- | --- | --- | --- | --- | --- | --- | --- | --- | --- | --- | --- | --- | --- | --- | --- | --- | --- | --- | --- |
| COc1cccc(/C=C/c2ccnc3ccccc23)c1OC | > 10 µM | > 10 µM | > 10 µM | > 10 µM | > 10 µM | > 10 µM | > 10 µM | > 10 µM | > 10 µM | > 10 µM |  |  |  |  |  |  |  |  |  |  |
| CCN(CC)c1ccc(C2NC(=O)c3ccccc3N2)cc1 (configuration not stated) | > 100 µM | > 100 µM | > 100 µM | 5.79 µM | > 100 µM | > 100 µM | > 100 µM | > 20.3 µM | > 100 µM | > 100 µM |  |  |  |  |  |  |  |  |  |  |
| Cc1ccc(NC(=O)Nc2c(Cl)cccc2Cl)cn1 | > 100 µM | > 100 µM | > 100 µM | > 100 µM | > 100 µM | > 100 µM | > 100 µM | > 100 µM | > 100 µM | > 100 µM | 65 µM | 5.76 µM | 4.03 µM | 28 µM | 5.61 µM | 4.24 µM | 8.14 µM | 5.88 µM | 55.4 µM | 19.4 µM |
| N#C/C(=C\c1cc(O)ccc1O)C(N)=O | > 100 µM | 88.1 µM | > 100 µM | > 100 µM | > 100 µM | > 100 µM | > 100 µM | 90.8 µM | > 100 µM | > 100 µM |  |  |  |  |  |  |  |  |  |  |
| COc1ccc(C(=O)O[C@H]2[C@H](O[C@H]3[C@@H](O)COC(O[C@H]4C[C@H]5[C@@H]6CC=C7C[C@@H](O)CC[C@]7(C)[C@H]6CC[C@]5(C)[C@H]4[C@H](C)C(=O)CCC(C)C)[C@@H]3OC(C)=O)OC[C@@H](O)[C@@H]2O)c(C)c1 (some centres not stated) | > 100 µM | < 0.01 µM | 13.9 µM | 25.2 µM | 2.05 µM | 0.187 µM | 48.9 µM | 13.2 µM | 29.7 µM | > 100 µM | 0.717 µM | < 0.01 µM | < 0.01 µM | 4.1 µM | 0.0332 µM | < 0.01 µM | 0.0723 µM | < 0.01 µM | 11.7 µM | 20.1 µM |
| O=c1c2ccccc2nc(-c2ccccc2Cl)n1-c1nnc(C(F)(F)F)s1 | > 100 µM | 14.4 µM | > 100 µM | 19.6 µM | 15 µM | 15.9 µM | > 100 µM | > 100 µM | > 100 µM | > 100 µM | 3.15 µM | 2.85 µM | 3.77 µM | 4.24 µM | 2.94 µM | 3.4 µM | 4.17 µM | 3.47 µM | 3.01 µM | 3.37 µM |
| CCN(CC)CCN1C(=O)C2C3C(=O)CC(C)(CC3C)C2C1=O (configuration not stated) | > 100 µM | > 100 µM | > 100 µM | > 100 µM | > 100 µM | > 100 µM | > 100 µM | > 100 µM | > 100 µM | > 100 µM | > 100 µM | > 100 µM | > 100 µM | > 100 µM | > 100 µM | > 100 µM | > 100 µM | > 100 µM | > 100 µM | > 100 µM |
| CN(C)C(=O)NC(=S)N(C)C | > 100 µM | > 100 µM | > 100 µM | > 100 µM | > 100 µM | > 100 µM | > 100 µM | > 100 µM | > 100 µM | > 100 µM |  |  |  |  |  |  |  |  |  |  |
| NC(=O)CC1(O)C=C(Br)C(=O)C(Br)=C1 | 15.9 µM | 15.8 µM | 8.73 µM | 33 µM | 7.75 µM | 3.47 µM | 30 µM | 26.2 µM | 23.4 µM | 9.42 µM | 4.58 µM | 4.21 µM | 2.22 µM | 18.2 µM | 2.65 µM | 1.77 µM | 6.57 µM | 12.8 µM | 9.05 µM | 2.88 µM |
| COc1ccc(-c2[nH]nc(N)c2-c2cc(OC)c3c(c2)OCO3)cc1 | > 100 µM | > 100 µM | > 100 µM | 31.4 µM | > 100 µM | > 100 µM | 70.5 µM | > 100 µM | > 100 µM | > 100 µM | 12.9 µM | 4.13 µM | 1.87 µM | 5.97 µM | 3.69 µM | 3 µM | 8.51 µM | 3.25 µM | 5.01 µM | 4.44 µM |
| O=C1C=CC(=Nc2cccc3c(N=C4C=CC(=O)O4)cccc23)O1 | > 100 µM | > 100 µM | 55.6 µM | > 100 µM | > 100 µM | 34.3 µM | > 100 µM | > 100 µM | 77.9 µM | 41.1 µM |  |  |  |  |  |  |  |  |  |  |
| Nc1cc(C(F)(F)F)c(-c2cc(N3CCOCC3)nc(N3CCOCC3)n2)cn1 | > 9.01 µM and 29 µM | 1.99 µM and 2.92 µM | > 100 µM | 4.14 µM and 5.45 µM | > 41.1 µM | > 100 µM |  | 1.46 µM and 2.02 µM | > 100 µM | > 9.24 µM and 11.8 µM | 1.4 µM and 1.27 µM | 0.318 µM and 0.375 µM | 0.875 µM and 0.58 µM | 0.85 µM and 1.12 µM | 0.523 µM and 0.826 µM | 1 µM and 0.717 µM | 0.227 µM and 0.28 µM | 0.179 µM and 0.377 µM | 1.27 µM and 1.61 µM | 1.67 µM and 1.55 µM |
| COc1ccc(-c2ccccc2)c2[nH]c3c(c12)CCNC3=O | > 100 µM | > 100 µM | > 100 µM | > 100 µM | > 100 µM | > 100 µM | > 100 µM | > 100 µM | > 100 µM | > 100 µM |  |  |  |  |  |  |  |  |  |  |
| NC1=NC(=O)/C(=C/c2ccc3ncccc3c2)S1 | > 25 µM | > 25 µM | > 25 µM | > 25 µM | > 25 µM | > 25 µM | > 25 µM | > 25 µM | > 25 µM | > 25 µM | > 25 µM | > 25 µM | > 25 µM | > 25 µM | > 25 µM | > 25 µM | > 25 µM | > 25 µM | > 25 µM | > 25 µM |
| Cc1cc(=O)n(-c2c(C)cccc2Cl)c(/C=C(\O)c2ccncc2)n1 | > 100 µM | > 100 µM | > 100 µM | > 100 µM | > 100 µM | > 100 µM | > 100 µM | > 100 µM | > 100 µM | > 100 µM |  |  |  |  |  |  |  |  |  |  |
| CC(c1ccccc1)[C@@H](C(=O)Nc1ccc(I)cc1F)N1C(=O)N[C@H](c2ccc(OC[C@H](O)CO)cc2)C1=O (some centres not stated) | > 25 µM | 2.25 µM | > 25 µM | > 25 µM | > 25 µM | > 25 µM | > 25 µM | > 25 µM | > 25 µM | > 25 µM | 8.97 µM | 0.0551 µM | 9.38 µM | 0.445 µM | 11.4 µM | 1.09 µM | 2.04 µM | > 11.1 µM | 6.14 µM | > 15.9 µM |
| COc1cc(/C=C/c2ccc(Br)cc2)cc(OC)c1OC | 87.1 µM | > 72.1 µM | > 37.8 µM | 28.1 µM | 61.1 µM | > 100 µM | > 100 µM | 39.5 µM | 71.8 µM | 98.3 µM |  |  |  |  |  |  |  |  |  |  |
| COc1ccc2c(c1)[n+](=O)c(C(=O)C/C(=N/NC(=O)C[N+](C)(C)C)C(=O)Nc1cccc(C)c1C)c(C)n2O | > 100 µM | > 100 µM | > 100 µM | > 100 µM | > 100 µM | > 100 µM | > 100 µM | > 100 µM | > 100 µM | > 100 µM |  |  |  |  |  |  |  |  |  |  |
| O=C(COc1ccc(OCC(=O)N2C(=O)CN(c3ccccc3)C2=S)cc1)N1C(=O)CN(c2ccccc2)C1=S | > 100 µM | > 100 µM | > 100 µM | > 100 µM | > 100 µM | > 100 µM | > 100 µM | > 100 µM | > 100 µM | > 100 µM | > 25 µM | > 25 µM | > 25 µM | > 25 µM | > 25 µM | > 25 µM | 29.3 µM | 33.7 µM | > 25 µM | > 25 µM |
| CC1=C(C(=O)NCc2ccccc2)C(c2ccccc2C)C(C(=O)NCc2ccccc2)=C(C)N1 | > 63.7 µM | 38.8 µM | > 100 µM | > 60 µM | 36.6 µM | > 100 µM | > 72.3 µM | > 94.1 µM | > 63 µM | 32.8 µM |  |  |  |  |  |  |  |  |  |  |
| CCOC(=O)/C(C#N)=C1\SS/C(=C(/C#N)C(=O)OCC)S1 | 29.8 µM | 32.6 µM | > 100 µM | 39.9 µM | 61.4 µM | 32.7 µM | 33 µM | 57.5 µM | 43.3 µM | 41.1 µM | 15.1 µM | 15.8 µM | 7.99 µM | 20.1 µM | 18 µM | 5.4 µM | 14.2 µM | 22.4 µM | 19.9 µM | 20.3 µM |
| CCOC(=O)c1c(NC(=O)c2ccccc2)sc2c3c(ccc12)OCN(C)C3 | 3.13 µM | 3.27 µM | 5.11 µM | 2.35 µM | 2.51 µM | 3.32 µM | 3.18 µM | 2.74 µM | 3.22 µM |  | 1.75 µM | 1.7 µM | 0.694 µM | 1.03 µM | 1.2 µM | 1.63 µM | 1.64 µM | 1.4 µM | 1.63 µM |  |
